Values of other authors in patent publication EP1694242B1, “PROCESS FOR MAKING PHARMACEUTICAL 7-(2-TRIMETHYLSILYLETHYL) CAMPTOTHECIN FORMULATIONS” (BIONUMERIK PHARMACEUTICALS, INC., priority 2003, dated 2005).

Settings: fraction of the potency of the lactone form; background statement

Compound: CC[C@@](O)(C(=O)O)c1cc2n(c(=O)c1CO)Cc1cc3ccccc3nc1-2 [carboxylate form of CPT]
- antitumor potency of the carboxylate form relative to the lactone form of CPT: one-tenth
